{"source": "the Deep4Chem optical property database", "test": "photoluminescence quantum yield (fraction); solvent given as SMILES"}
{"molecule": "CCCCOc1ccc(-c2oc3cc4n(c3c2-c2ccc(OCCCC)cc2)[B-](F)(F)[N+]2=Cc3cc5oc(-c6ccc(OCCCC)cc6)c(-c6ccc(OCCCC)cc6)c5n3[B-](F)(F)[N+]2=C4)cc1", "values": [{"measurement": "photoluminescence quantum yield", "setting": "in C1CCOC1", "value": 0.44}, {"measurement": "photoluminescence quantum yield", "setting": "in CN(C)C=O", "value": 0.32}, {"measurement": "photoluminescence quantum yield", "setting": "in CS(C)=O", "value": 0.31}, {"measurement": "photoluminescence quantum yield", "setting": "in Cc1ccccc1", "value": 0.42}, {"measurement": "photoluminescence quantum yield", "setting": "in ClC(Cl)Cl", "value": 0.43}, {"measurement": "photoluminescence quantum yield", "setting": "in ClCCl", "value": 0.43}]}
{"molecule": "CC[N+](CC)=c1ccc2c(C(F)(F)F)c3oc4cc(N)ccc4c3oc-2c1", "values": [{"measurement": "photoluminescence quantum yield", "setting": "in CCO", "value": 0.064}, {"measurement": "photoluminescence quantum yield", "setting": "in ClCCl", "value": 0.157}, {"measurement": "photoluminescence quantum yield", "setting": "in O", "value": 0.014}]}
{"molecule": "Cc1cc(C)c(B2c3cc(C)ccc3N3c4ccc(C)cc4B(c4c(C)cc(C)cc4C)c4cc(C)cc2c43)c(C)c1", "values": [{"measurement": "photoluminescence quantum yield", "setting": "in Cc1ccccc1-c1cccc(Oc2cc3c4c(c2)Oc2cc(-c5ccccc5C)ccc2B4c2ccc(-c4ccccc4C)cc2O3)c1", "value": 0.889}, {"measurement": "photoluminescence quantum yield", "setting": "in ClCCl", "value": 0.79}]}
{"molecule": "O=C1c2ccccc2C2=Nc3ccc4ccccc4[n+]3[B-](F)(F)N12", "values": [{"measurement": "photoluminescence quantum yield", "setting": "in ClCCl", "value": 0.74}]}
{"molecule": "CN(C)c1ccc(/C=C2\\CC/C(=C\\c3ccc(C#N)cc3)C2=O)cc1", "values": [{"measurement": "photoluminescence quantum yield", "setting": "in C1CCOC1", "value": 0.027}, {"measurement": "photoluminescence quantum yield", "setting": "in CC#N", "value": 0.0036}, {"measurement": "photoluminescence quantum yield", "setting": "in CC(C)=O", "value": 0.0095}, {"measurement": "photoluminescence quantum yield", "setting": "in CC(C)O", "value": 0.026}, {"measurement": "photoluminescence quantum yield", "setting": "in CCCCO", "value": 0.017}, {"measurement": "photoluminescence quantum yield", "setting": "in CCCCOC(C)=O", "value": 0.14}, {"measurement": "photoluminescence quantum yield", "setting": "in CCCO", "value": 0.013}, {"measurement": "photoluminescence quantum yield", "setting": "in CCO", "value": 0.0061}, {"measurement": "photoluminescence quantum yield", "setting": "in CCOC(=O)c1ccccc1", "value": 0.18}, {"measurement": "photoluminescence quantum yield", "setting": "in CCOC(C)=O", "value": 0.09}, {"measurement": "photoluminescence quantum yield", "setting": "in CCOCC", "value": 0.074}, {"measurement": "photoluminescence quantum yield", "setting": "in CN(C)C=O", "value": 0.0066}, {"measurement": "photoluminescence quantum yield", "setting": "in CO", "value": 0.0027}, {"measurement": "photoluminescence quantum yield", "setting": "in CS(C)=O", "value": 0.0074}, {"measurement": "photoluminescence quantum yield", "setting": "in Cc1ccccc1", "value": 0.05}, {"measurement": "photoluminescence quantum yield", "setting": "in ClC(Cl)(Cl)Cl", "value": 0.019}, {"measurement": "photoluminescence quantum yield", "setting": "in ClC(Cl)Cl", "value": 0.3}, {"measurement": "photoluminescence quantum yield", "setting": "in ClCCl", "value": 0.17}, {"measurement": "photoluminescence quantum yield", "setting": "in Clc1ccccc1Cl", "value": 0.29}, {"measurement": "photoluminescence quantum yield", "setting": "in O=C1CCCC1", "value": 0.034}, {"measurement": "photoluminescence quantum yield", "setting": "in S=C=S", "value": 0.034}, {"measurement": "photoluminescence quantum yield", "setting": "in c1ccccc1", "value": 0.066}, {"measurement": "photoluminescence quantum yield", "setting": "in c1ccncc1", "value": 0.051}]}
{"molecule": "COc1ccc(C2=[N+]3C(=Nc4c(-c5ccccc5)c5c(n4[B-]3(F)F)-c3ccc(OC)cc3CC5)C(c3ccccc3)=C2)cc1", "values": [{"measurement": "photoluminescence quantum yield", "setting": "in ClC(Cl)Cl", "value": 0.38}]}
{"molecule": "CC1=CC(/C=C/c2ccc(OCCCN=[N+]=[N-])cc2)=[N+]2C1=C(c1ccc(N(C)C)cc1)c1c(C)cc(C)n1[B-]2(F)F", "values": [{"measurement": "photoluminescence quantum yield", "setting": "in CO", "value": 0.59}]}
{"molecule": "Cc1cc(C)cc(C)c1", "values": [{"measurement": "photoluminescence quantum yield", "setting": "in C1CCCCC1", "value": 0.27}]}
{"molecule": "c1csc(-c2c3ccc(=[N+]4CCCCC4)cc-3oc3cc(N4CCCCC4)ccc23)c1", "values": [{"measurement": "photoluminescence quantum yield", "setting": "in CCO", "value": 0.1}, {"measurement": "photoluminescence quantum yield", "setting": "in ClCCl", "value": 0.33}]}
{"molecule": "[O-][n+]1c(/C=C/C=C/c2ccccc2)nc(N2CCOCC2)c2c1CCCC2", "values": [{"measurement": "photoluminescence quantum yield", "setting": "in ClCCl", "value": 0.06}]}
{"molecule": "CC1(C)C(/C=C/c2cc3ccc(O)cc3oc2=O)=[N+](CCCS(=O)(=O)[O-])c2ccc3c(S(=O)(=O)O)cc(S(=O)(=O)O)cc3c21", "values": [{"measurement": "photoluminescence quantum yield", "setting": "in CCO", "value": 0.014}, {"measurement": "photoluminescence quantum yield", "setting": "in CS(C)=O", "value": 0.025}, {"measurement": "photoluminescence quantum yield", "setting": "in O", "value": 0.027}]}
{"molecule": "CC1(C)[C@@H]2[C@@H]1[C@]1(c3ccccc3)N=NC2(c2ccccc2)C2C3C=CC(C3)C21", "note": "(some centres undefined)", "values": [{"measurement": "photoluminescence quantum yield", "setting": "in CC#N", "value": 0.08}]}
{"molecule": "Cc1cc2ccccc2cc1C", "values": [{"measurement": "photoluminescence quantum yield", "setting": "in C1CCCCC1", "value": 0.56}]}
{"molecule": "N#Cc1c(-n2c3ccccc3c3ccccc32)c(-n2c3ccc(-c4ccccc4)cc3c3cc(-c4ccccc4)ccc32)c(-n2c3ccccc3c3ccccc32)c(-n2c3ccc(-c4ccccc4)cc3c3cc(-c4ccccc4)ccc32)c1-n1c2ccccc2c2ccccc21", "values": [{"measurement": "photoluminescence quantum yield", "setting": "in Cc1ccccc1", "value": 0.81}, {"measurement": "photoluminescence quantum yield", "setting": "in c1cc(-c2cccc(-n3c4ccccc4c4ccccc43)c2)cc(-n2c3ccccc3c3ccccc32)c1", "value": 0.8}]}
{"molecule": "COc1ccc(-c2ccc(/C=C/c3cnc4ccccc4n3)cc2)cc1", "values": [{"measurement": "photoluminescence quantum yield", "setting": "in ClCCl", "value": 0.42}]}
{"molecule": "O=C1C=CC2=Cc3ccccc3B(O)N12", "values": [{"measurement": "photoluminescence quantum yield", "setting": "in CC#N", "value": 0.97}, {"measurement": "photoluminescence quantum yield", "setting": "in CO", "value": 0.1}, {"measurement": "photoluminescence quantum yield", "setting": "in CS(C)=O", "value": 0.01}, {"measurement": "photoluminescence quantum yield", "setting": "in ClC(Cl)Cl", "value": 0.65}]}
{"molecule": "C(=C\\c1cccc(/C=C/c2c3ccccc3cc3ccccc23)c1)/c1ccncc1", "values": [{"measurement": "photoluminescence quantum yield", "setting": "in C1CCOC1", "value": 0.6}]}
{"molecule": "CC(C)(C)c1ccc2c3c(c4ccc(C(C)(C)C)cc4c2c1)=[N+]1C(=C(c2ccccc2)c2c(Br)c4c5ccc(C(C)(C)C)cc5c5cc(C(C)(C)C)ccc5c4n2[B-]1(F)F)C=3Br", "values": [{"measurement": "photoluminescence quantum yield", "setting": "in C1CCCCC1", "value": 0.03}, {"measurement": "photoluminescence quantum yield", "setting": "in C1CCOC1", "value": 0.02}, {"measurement": "photoluminescence quantum yield", "setting": "in CC#N", "value": 0.02}, {"measurement": "photoluminescence quantum yield", "setting": "in Cc1ccccc1", "value": 0.03}, {"measurement": "photoluminescence quantum yield", "setting": "in ClCCl", "value": 0.03}]}
